Several values for one entry are separate records, joined by “and”; a condition that tells them apart may be missing. Identical values can stand only once. Inconclusive results and toxic doses are left out. Peptide text beside a SMILES is read from it.
Tested on: BDF1 mice, B16 melanoma ip, median survival T/C
Assay: NCI In Vivo Anticancer Drug Screen. Data for tumor model B16 Melanoma (intraperitoneal) in B6D2F1 (BDF1) mice
Settings: endpoint: median survival time, higher = longer survival
In short: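 Vehicle-treated animals serve as the reference (C); treated animals (T) are scored for survival or tumor size after tumor transplantation.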

[1] = dose: 100.0 mg/kg/injection, schedule: Q01DX009 (ip), vehicle: Klucel (hydroxypropylcellulose) (HPC)
[2] = dose: 200.0 mg/kg/injection, schedule: Q01DX009 (ip), vehicle: Klucel (hydroxypropylcellulose) (HPC)
[3] = dose: 100.0 mg/kg/injection, schedule: Q04DX003 (ip), vehicle: Klucel (hydroxypropylcellulose) (HPC)
[4] = dose: 200.0 mg/kg/injection, schedule: Q04DX003 (ip), vehicle: Klucel (hydroxypropylcellulose) (HPC)
[5] = dose: 400.0 mg/kg/injection, schedule: Q04DX003 (ip), vehicle: Klucel (hydroxypropylcellulose) (HPC)
[6] = dose: 12.5 mg/kg/injection, schedule: Q01DX009 (ip), vehicle: saline with Tween-80
[7] = dose: 25.0 mg/kg/injection, schedule: Q01DX009 (ip), vehicle: saline with Tween-80
[8] = dose: 200.0 mg/kg/injection, schedule: Q01DX009 (ip), vehicle: saline with Tween-80
[9] = dose: 6.25 mg/kg/injection, schedule: Q01DX009 (ip), vehicle: Klucel (hydroxypropylcellulose) (HPC)
[10] = dose: 12.5 mg/kg/injection, schedule: Q01DX009 (ip), vehicle: Klucel (hydroxypropylcellulose) (HPC)
[11] = dose: 25.0 mg/kg/injection, schedule: Q01DX009 (ip), vehicle: Klucel (hydroxypropylcellulose) (HPC)
[12] = dose: 50.0 mg/kg/injection, schedule: Q01DX009 (ip), vehicle: Klucel (hydroxypropylcellulose) (HPC)
[13] = dose: 50.0 mg/kg/injection, schedule: Q01DX009 (ip), vehicle: saline with Tween-80
[14] = dose: 100.0 mg/kg/injection, schedule: Q01DX009 (ip), vehicle: saline with Tween-80
[15] = dose: 100.0 mg/kg/injection, schedule: Q04DX003 (ip), vehicle: saline with Tween-80
[16] = dose: 200.0 mg/kg/injection, schedule: Q04DX003 (ip), vehicle: saline with Tween-80
[17] = dose: 400.0 mg/kg/injection, schedule: Q04DX003 (ip), vehicle: saline with Tween-80
[18] = dose: 25.0 mg/kg/injection, schedule: Q04DX003 (ip), vehicle: saline with Tween-80
[19] = dose: 50.0 mg/kg/injection, schedule: Q04DX003 (ip), vehicle: saline with Tween-80

For CC(C)NC(=O)N(c1ccccc1)c1ccccc1, the T/C (dose: 75.0 mg/kg/injection, schedule: Q01DX009 (ip), vehicle: gum acacia) was 99 % of control, the T/C (dose: 150.0 mg/kg/injection, schedule: Q01DX009 (ip), vehicle: gum acacia) was 103 % of control and the T/C (dose: 300.0 mg/kg/injection, schedule: Q01DX009 (ip), vehicle: gum acacia) was 99 % of control.
O=COCCc1ccccc1 was tested, and the T/C [1] was 113 % of control, the T/C [2] was 103 % of control and the T/C (dose: 400.0 mg/kg/injection, schedule: Q01DX009 (ip), vehicle: Klucel (hydroxypropylcellulose) (HPC)) was 96 % of control.
With CCOC1=CCN(S(=O)(=O)c2ccc(C)cc2)c2ccc(OC)cc21 the T/C [3] was 102 % of control, the T/C [4] was 104 % of control and the T/C [5] was 94 % of control.
In the case of CCOC(Cl)CCl (stereo not given), the T/C [6] is reported as 97 % of control and the T/C [7] is reported as 102 % of control.
CN(CCCOS(C)(=O)=O)CCCOS(C)(=O)=O was tested, and the T/C (dose: 6.25 mg/kg/injection, schedule: Q01DX009 (ip), vehicle: saline) was 115 % of control, the T/C (dose: 10.0 mg/kg/injection, schedule: Q01DX009 (ip), vehicle: saline) was 185 % of control and the T/C (dose: 20.0 mg/kg/injection, schedule: Q01DX009 (ip), vehicle: saline) was 150 % of control. The T/C (dose: 25.0 mg/kg/injection, schedule: Q01DX009 (ip), vehicle: saline) was 181 % of control and the T/C (dose: 40.0 mg/kg/injection, schedule: Q01DX009 (ip), vehicle: saline) was 285 % of control.
For O=C1C(=O)c2ccccc2C(O)=C1CCCc1ccc(C2CCCCC2)cc1, the T/C [7] was 104 % of control and the T/C [8] was 88 % of control.
In the case of COc1cc(OC)c(/C=C/c2cc[n+](C)c3ccccc23)c(OC)c1, the T/C (dose: 0.75 mg/kg/injection, schedule: Q01DX009 (ip), vehicle: saline) is reported as 105 % of control, the T/C (dose: 1.5 mg/kg/injection, schedule: Q01DX009 (ip), vehicle: saline) is reported as 95 % of control and the T/C (dose: 3.0 mg/kg/injection, schedule: Q01DX009 (ip), vehicle: saline) is reported as 97 % of control.
CC(=O)OC1C(=O)C(O)C(C)OC1O[C@@H]1C[C@@]2(C)[C@@H]3CC=C4[C@@H](C[C@H](O)C(=O)C4(C)C)[C@]3(C)C(=O)C[C@]2(C)[C@H]1[C@@](C)(O)C(=O)/C=C/C(C)(C)O (stereo not given in full) was tested, and the T/C (dose: 1.0 mg/kg/injection, schedule: Q01DX009 (ip), vehicle: saline) was 92 % of control and the T/C (dose: 2.0 mg/kg/injection, schedule: Q01DX009 (ip), vehicle: saline) was 92 % of control.
For CC(CCCN(CCCl)CCCl)Nc1ccnc2cc(Cl)ccc12 (stereo not given), the T/C (dose: 0.25 mg/kg/injection, schedule: Q01DX009 (ip), vehicle: saline + alcohol) was 94 % of control, the T/C (dose: 0.25 mg/kg/injection, schedule: Q04DX003 (ip), vehicle: saline + alcohol) was 100 % of control and the T/C (dose: 0.5 mg/kg/injection, schedule: Q01DX009 (ip), vehicle: saline + alcohol) was 94 % of control. The T/C (dose: 0.5 mg/kg/injection, schedule: Q04DX003 (ip), vehicle: saline + alcohol) was 106 % of control, the T/C (dose: 1.0 mg/kg/injection, schedule: Q01DX009 (ip), vehicle: saline + alcohol) was 97 % of control and the T/C (dose: 1.0 mg/kg/injection, schedule: Q04DX003 (ip), vehicle: saline + alcohol) was 112 % of control. The T/C (dose: 2.0 mg/kg/injection, schedule: Q01DX009 (ip), vehicle: saline + alcohol) was 88 % of control and the T/C (dose: 2.0 mg/kg/injection, schedule: Q04DX003 (ip), vehicle: saline + alcohol) was 118 % of control.
In the case of CNCc1ccccc1C(O)c1ccc(Cl)cc1 (stereo not given), the T/C [9] is reported as 102 % of control, the T/C [10] is reported as 100 % of control and the T/C [11] is reported as 97 % of control. For the same molecule, the T/C [12] was 102 % of control.
For CCN(C(=O)Nc1ccccc1)c1ccccc1C, the T/C (dose: 6.25 mg/kg/injection, schedule: Q01DX009 (ip), vehicle: saline with Tween-80) was 100 % of control, the T/C [6] was 88 % of control and the T/C [7] was 94 % of control.
CCCCOC(=O)c1ccc(NC(=O)Nc2ccccc2)cc1 was tested, and the T/C [7] was 93 % of control, the T/C [13] was 98 % of control and the T/C [14] was 93 % of control.
In the case of COc1ccc2c(c1)CN(S(=O)(=O)c1ccc(C)cc1)CCC2O (stereo not given), the T/C [3] is reported as 96 % of control, the T/C [4] is reported as 93 % of control and the T/C [5] is reported as 95 % of control.
With CC(NC(=O)C(C)NC(=O)C(N)CCC(=O)O)C(=O)O (stereo not drawn) (H-Glu-Ala-Ala-OH; configuration not given here) the T/C (dose: 50.0 mg/kg/injection, schedule: Q01DX009 (ip), vehicle: saline) was 111 % of control, the T/C (dose: 100.0 mg/kg/injection, schedule: Q01DX009 (ip), vehicle: saline) was 96 % of control and the T/C (dose: 200.0 mg/kg/injection, schedule: Q01DX009 (ip), vehicle: saline) was 105 % of control. The T/C (dose: 400.0 mg/kg/injection, schedule: Q01DX009 (ip), vehicle: saline) was 94 % of control.
CC(=O)[O][Pb]([O]C(C)=O)([c]1ccccc1)[c]1ccccc1 was tested, and the T/C [9] was 98 % of control, the T/C [10] was 99 % of control and the T/C [11] was 103 % of control. The T/C [12] was 95 % of control.
In the case of O=S(=O)(O)SCCNCCCCCC1CCCCC1, the T/C (dose: 0.75 mg/kg/injection, schedule: Q01DX009 (ip), vehicle: saline with Tween-80) is reported as 90 % of control, the T/C (dose: 1.5 mg/kg/injection, schedule: Q01DX009 (ip), vehicle: saline with Tween-80) is reported as 95 % of control and the T/C (dose: 3.0 mg/kg/injection, schedule: Q01DX009 (ip), vehicle: saline with Tween-80) is reported as 93 % of control. The T/C (dose: 6.0 mg/kg/injection, schedule: Q01DX009 (ip), vehicle: saline with Tween-80) was 104 % of control and the T/C (dose: 12.0 mg/kg/injection, schedule: Q01DX009 (ip), vehicle: saline with Tween-80) was 100 % of control.
With CC(C)(CO)C(O)C(=O)NNCc1ccccc1 (stereo not given) the T/C (dose: 25.0 mg/kg/injection, schedule: Q04DX003 (ip), vehicle: Klucel (hydroxypropylcellulose) (HPC)) was 102 % of control, the T/C (dose: 25.0 mg/kg/injection, schedule: Q04DX003 (ip), vehicle: saline) was 95 % of control and the T/C (dose: 50.0 mg/kg/injection, schedule: Q04DX003 (ip), vehicle: Klucel (hydroxypropylcellulose) (HPC)) was 90 % of control. The T/C (dose: 50.0 mg/kg/injection, schedule: Q04DX003 (ip), vehicle: saline) was 99 % of control, the T/C (dose: 100.0 mg/kg/injection, schedule: Q04DX003 (ip), vehicle: saline) was 100 % of control and the T/C [4] was 92 % of control. For the same molecule, the T/C (dose: 200.0 mg/kg/injection, schedule: Q04DX003 (ip), vehicle: saline) was 100 % of control, the T/C [5] was 95 % of control and the T/C (dose: 400.0 mg/kg/injection, schedule: Q04DX003 (ip), vehicle: saline) was 91 % of control.
In the case of CC1(c2ccccc2)CCc2ccccc21 (stereo not given), the T/C [7] is reported as 103 % of control, the T/C [13] is reported as 89 % of control and the T/C [14] is reported as 90 % of control.
In the case of O=NN(CCCl)C(=O)Nc1ccc2c3c(cccc13)-c1ccccc1-2, the T/C (dose: 1.56 mg/kg/injection, schedule: Q01DX009 (ip), vehicle: Klucel (hydroxypropylcellulose) (HPC)) is reported as 111 % of control, the T/C (dose: 3.12 mg/kg/injection, schedule: Q01DX009 (ip), vehicle: Klucel (hydroxypropylcellulose) (HPC)) is reported as 124 % of control and the T/C [11] is reported as 158 % of control and 175 % of control. For the same molecule, the T/C [12] was 170 % of control, the T/C [1] was 150 % of control and the T/C [2] was 150 % of control.
In the case of CCCCCCCCCCCCCCCCC/C=C1\CC(=O)OC1=O, the T/C [7] is reported as 97 % of control and 99 % of control, the T/C [13] is reported as 91 % of control and 105 % of control and the T/C [14] is reported as 92 % of control.
In the case of COc1ccc(C(=O)C(C)Br)c(OCc2ccccc2)c1OC (stereo not given), the T/C [14] is reported as 95 % of control, the T/C [15] is reported as 94 % of control and the T/C [8] is reported as 87 % of control. For the same molecule, the T/C [16] was 100 % of control and the T/C [17] was 97 % of control.
In the case of CC(=O)OCC(=O)[C@@]12OC(C)(C)O[C@@H]1C[C@H]1[C@@H]3CC(C=O)=C4C=C(OCCCl)CC[C@]4(C)[C@@]3(F)[C@@H](O)C[C@@]12C, the T/C [18] is reported as 111 % of control, the T/C [19] is reported as 112 % of control and the T/C [15] is reported as 115 % of control. The T/C [16] was 110 % of control and the T/C [17] was 109 % of control.
For CCN1CSC(=S)N(CC)C1, the T/C [6] was 104 % of control, the T/C [7] was 102 % of control and the T/C [18] was 89 % of control. The T/C [13] was 97 % of control, the T/C [19] was 100 % of control and the T/C [14] was 100 % of control. The T/C [15] was 92 % of control.

From PubChem BioAssay AID192 (DTP/NCI, 2004)
